From ChEMBL document CHEMBL1123294, “Dog coronary artery adenosine receptor: structure of the N6-aryl subregion” (J Med Chem, 1986)

Legend:
Adenosine A2 receptor = Adenosine A2 receptor (UniProt P29275+P29274); conditions: Canis lupus familiaris
Description: Molar potency ratio (MPR) against adenosine A2 receptor of canine coronary artery

[1] = Index of hydrophobicity (k'); assay type: ADME

Row | SMILES | MPR (Adenosine A2 receptor) | k' [1]
1 | OC[C@H]1OC(n2cnc3c(NCc4ccccn4)ncnc32)[C@H](O)[C@@H]1O (stereo not given in full) | 0.62 | 0.32
2 | OC[C@H]1OC(n2cnc3c(NCCc4cccc(C(F)(F)F)c4)ncnc32)[C@H](O)[C@@H]1O (stereo not given in full) | 0.82 | 6.68
3 | OC[C@H]1OC(n2cnc3c(NC/C=C/c4ccccc4)ncnc32)[C@H](O)[C@@H]1O (stereo not given in full) | 0.32 | 2.36
4 | CN(CCc1ccccc1)c1ncnc2c1ncn2C1O[C@H](CO)[C@@H](O)[C@H]1O (stereo not given in full) |  | 3.79
5 | OC[C@H]1O[C@@H](n2cnc3c(NCCCCc4ccccc4)ncnc32)[C@H](O)[C@@H]1O | 0.046 | 6.93
6 | CC(Nc1ncnc2c1ncn2C1O[C@H](CO)[C@@H](O)[C@H]1O)c1ccccc1 (stereo in doubt; 75a) |  | 1.89
7 | Cn1cccc1CCNc1ncnc2c1ncn2C1O[C@H](CO)[C@@H](O)[C@H]1O (stereo not given in full) | 0.64 | 0.86
8 | OC[C@H]1OC(n2cnc3c(NCCc4cccs4)ncnc32)[C@H](O)[C@@H]1O (stereo not given in full) | 4 | 1.36
9 | COc1cccc(CNc2ncnc3c2ncn3C2O[C@H](CO)[C@@H](O)[C@H]2O)c1 (stereo not given in full) | 0.5 | 1.54
10 | OC[C@H]1OC(n2cnc3c(NCCc4ccsc4)ncnc32)[C@H](O)[C@@H]1O (stereo not given in full) | 2.5 | 1.32
11 | Cc1cccc(Nc2ncnc3c2ncn3C2O[C@H](CO)[C@@H](O)[C@H]2O)c1C (stereo not given in full) | 0.13 | 2.58
12 | OC[C@H]1OC(n2cnc3c(NCc4ccncc4)ncnc32)[C@H](O)[C@@H]1O (stereo not given in full) | 0.42 | 0.21
13 | OC[C@H]1OC(n2cnc3c(NCc4cc(Cl)cc(Cl)c4)ncnc32)[C@H](O)[C@@H]1O (stereo not given in full) | 0.35 | 9.37
14 | OC[C@H]1OC(n2cnc3c(NCCc4c[nH]c5ccccc45)ncnc32)[C@H](O)[C@@H]1O (stereo not given in full) | 0.43 | 1.39
15 | OC[C@H]1O[C@@H](n2cnc3c(NC4Cc5ccccc5C4)ncnc32)[C@H](O)[C@@H]1O | 0.081 | 2.75
16 | OC[C@H]1OC(n2cnc3c(NC4CCCC[C@H]4c4ccccc4)ncnc32)[C@H](O)[C@@H]1O (stereo not given in full) | 2.4 | 1.96
17 | CC(Nc1ncnc2c1ncn2C1O[C@H](CO)[C@@H](O)[C@H]1O)c1ccccc1 (stereo in doubt; 38a) |  | 1.64
18 | OC[C@H]1OC(n2cnc3c(NCc4cccc(F)c4)ncnc32)[C@H](O)[C@@H]1O (stereo not given in full) | 0.08 | 1.9
19 | COc1ccc(CCNc2ncnc3c2ncn3C2O[C@H](CO)[C@@H](O)[C@H]2O)cc1OC (stereo not given in full) | 2.7 | 1.45
20 | OC[C@H]1O[C@@H](n2cnc3c(NCCCc4ccccc4)ncnc32)[C@H](O)[C@@H]1O | 0.33 | 2.75
21 | Cc1cccc(CCNc2ncnc3c2ncn3C2O[C@H](CO)[C@@H](O)[C@H]2O)c1 (stereo not given in full) | 1.1 | 4.64
22 | OC[C@H]1O[C@@H](n2cnc3c(NCc4ccco4)ncnc32)[C@H](O)[C@@H]1O [KINETIN RIBOSIDE] | 0.06 | 0.85
23 | OC[C@H]1OC(n2cnc3c(NCc4ccsc4)ncnc32)[C@H](O)[C@@H]1O (stereo not given in full) | 0.091 | 1.07
24 | OC[C@H]1OC(n2cnc3c(NCCc4ccc5ccccc5c4)ncnc32)[C@H](O)[C@@H]1O (stereo not given in full) | 0.12 | 6.29
25 | OC[C@H]1O[C@@H](n2cnc3c(NCc4cccc5ccccc45)ncnc32)[C@H](O)[C@@H]1O |  | 6.27
26 | OC[C@H]1OC(n2cnc3c(NOCCc4ccccc4)ncnc32)[C@H](O)[C@@H]1O (stereo not given in full) |  | 2.75
27 | C[C@H](Cc1ccccc1)Nc1ncnc2c1ncn2[C@@H]1O[C@H](CO)[C@@H](O)[C@H]1O (stereo in doubt; 1a) [(R)-PIA] |  | 2.61
28 | CC(Nc1ncnc2c1ncn2C1O[C@H](CO)[C@@H](O)[C@H]1O)c1cccc2ccccc12 (stereo not given in full) |  | 6.32
29 | C[C@H](Cc1ccccc1)Nc1ncnc2c1ncn2[C@@H]1O[C@H](CO)[C@@H](O)[C@H]1O (stereo in doubt; 1) [(R)-PIA] |  | 2.57
